Source: US8383626B2, “Nitric oxide donors for inducing neurogenesis” (Henry Ford Health System, priority 1999, dated 2013)

Columns and labels:
Assay type in all cases: in vivo, rat
[1] = tested on: progenitor cells in the dentate gyrus and subventricular zone (SVZ); experiment: Cell proliferation (BrdU immunoreactive cells) in ischemic rats treated with VIAGRA; conditions: 28 days after ischemia, vs saline
Experimental: (§1) The MCA was occluded by placement of an embolus at the origin of the MCA.
(§2) For BrdU immunostaining, DNA was first denatured by incubating brain sections (6 μm) in 50% formamide 2×SSC at 65° C. for 2 hours and then in 2 N HCL at 37° C. for 30 minutes. Sections were then rinsed with Tris buffer and treated with 1% of H2O2 to block endogenous peroxidase. Sections were incubated with a primary antibody to BrdU (1:100) at room temperature for 1 hour and then incubated with biotinylated secondary antibody (1:200, Vector, Burlingame, Calif.) for 1 hour. Reaction products were detected using 3′3′-diaminobenzidine-tetrahydrochloride (DAB, Sigma). For TuJ1 immunostaining, coronal sections were incubated with the antibody against TuJ1 (1:1000) at 4° C. overnight and then incubated with a biotinylated horse anti-mouse immunoglobulin antibody at room temperature for 30 minutes. Reaction products were detected with DAB.
BrdU immunostained sections were digitized using a 40× objective (Olympus BX40) via the MCID computer imaging analysis system (Imaging Research, St. Catharines, Canada). BrdU immunoreactive nuclei were counted on a computer monitor to improve visualization and in one focal plane to avoid over-sampling. Structures were sampled by analyzing entire structures on each section (SVZ and dentate gyrus). All BrdU immunoreactive-positive nuclei in these areas are presented as the number of the BrdU immunoreactive cells/mm^2 and data shown are mean±SE. Density for the selected several sections was averaged to obtain a mean density value for each animal. For measurements of TuJ1 immunoreactivity, a threshold was applied to each digitized image (628×480 μm^2) for ensuring that the numbers of TuJ1 immunostained pixels were representative of the original TuJ1 immunoreactive patterns. All objects with fewer than 5 pixels were eliminated from measurements. Data are presented as a percentage of area, in which the number of TuJ1 immunostained pixels was divided by the total number of pixels in the area (628×480 μm^2). […]

[2] = tested on: TuJ1 immunoreactive cells; experiment: TuJ1 immunoreactivity 28 days after ischemia; conditions: 2 or 5 mg/kg; vs contralateral hemisphere and saline treated ischemic rats
Experimental: as §2, with “3'3'-diaminobenzidine-tetrahydrochloride” for “3′3′-diaminobenzidine-tetrahydrochloride”, “DAB. BrdU immunostained sections were digitized using a 40× objective (Olympus BX40) via the MCID computer imaging analysis system (Imaging Research, St. Catharines, Canada). BrdU immunoreactive nuclei were counted on a computer monitor to improve visualization and in one focal plane to avoid over-sampling. Structures were sampled by analyzing entire structures on each section (SVZ and dentate gyrus). […] To examine the effects of […] on neurons, TuJ1 immunoreactivity was measured 28 days after ischemia.” for “DAB.”

[3] = tested on: ischemic rats (MCA occlusion); experiment: Behavior tests (foot-fault, adhesive removal) and body weight after MCA occlusion
Experimental: as §1
(§3) The ischemic rats (n=9) were treated with the same volume of saline as a control group. Rats received intraperitoneal injection of BrdU (50 mg/kg) 24 hours after ischemia and daily intraperitoneal injection of BrdU for 14 consecutive days. All rats were sacrificed 28 days after ischemia.

[4] = tested on: focal cerebral ischemia (MCA occlusion); experiment: Infarct volume 28 days after ischemia
Experimental: as §1, §3

ischemic rats (stroke) = experiment: Battery of neurological functional tests (NSS, Rotarod, footfault, adhesive removal, body weight) after stroke; conditions: Group 3: iv at one day and two days after stroke; middle aged rats; vs control
Experimental: Administration of nitric oxide donor compound (DETA/NO) to normal and ischemic rats promotes neurogenesis in non-ischemic and ischemic brains. Since then, additional experiments have been performed to test the hypothesis that neurogenesis induced by DETA/NO promotes functional improvement after stroke; the data is provided herewith. Animals were administered (iv/ip) DETA/NO at one day (Group 1) or seven days (Group 2) after induction of stroke and followed by daily injection (ip) of DETA/NO over a period of seven days. Another NO donor compound (SNAP) was administered (iv) to ischemic rats at one day and two days after stroke (Group 3). Young (3 month old) rats were used in Groups 1 and 2. Middle aged rats (10 to 12 months old) were used in Group 3. A battery of neurological functional tests were measured from two days to forty-two days after stroke. These tests included 1) Neurological severity score (NSS) which measures motor, sensory and reflex functions and is similar to the contralateral neglect testing described in humans. The higher the score, the more severe the injury; 2) Rotarod test measures fore and hindlimb motor coordination and balance. Data are presented as percentage of baseline values; 3) Footfault test measures fore and hindlimb motor coordination. The higher the number, the more severe the injury; 4) Adhesive removal test measures sensorimotor impairments. Data are presented as time (seconds). The longer the time period, the more severe the injury; 5) Animal body weight.

SMILES | numbers of BrdU immunoreactive cells in the ipsilateral SVZ ([1]; 2 mg/kg) | numbers of BrdU immunoreactive cells in the SVZ of both hemispheres ([1]; 5 mg/kg) | numbers of BrdU immunoreactive cells in the dentate gyrus of both hemispheres ([1]; oral 2 or 5 mg/kg initiated at 2 or 24 hours after stroke) | TuJ1 immunoreactive cells in the ipsilateral SVZ and striatum [2] | animal body weight loss ([3]; 2 mg/kg or 5 mg/kg initiated at 2 hours) | performance on the foot-fault test and the adhesive removal test ([3]; 2 mg/kg or 5 mg/kg initiated at 2 hours of onset of ischemia, during 2 to 21 days, vs saline) | foot-fault and adhesive removal tests ([3]; 2 mg/kg starting at 24 hours after onset of ischemia, during 7 to 28 days) | body weight loss ([3]; 2 mg/kg starting at 24 hours, at 4, 7 14, 21 and 28 days after ischemia) | infarct volume 28 days after ischemia ([4]; 2 mg/kg starting at 24 hours, vs control group) | infarct volumes measured 28 days after ischemia ([4]; 2 or 5 mg/kg initiated at 2 hours, vs saline) | % of infarct volume at 28 days (Mean ± SE) ([4]; group 1: 2 h after MCAo, 2 mg/kg oral × 7days) | % of infarct volume at 28 days (Mean ± SE) ([4]; group 2: 2 h after MCAo, 5 mg/kg oral × 7days) | % of infarct volume at 28 days (Mean ± SE) ([4]; group 3: 24 h after MCAo, 2 mg/kg oral × 7days) | motor and sensorimotor functions (Rotarod, footfault, Adhesive removal tests) (ischemic rats (stroke))
CCCc1nn(C)c2c(=O)[nH]c(-c3cc(S(=O)(=O)N4CCN(C)CC4)ccc3OCC)nc12 [VIAGRA™, sildenafil] | significantly (p<0.05) increased | significantly (p<0.05) increased | significant (p<0.05) increases | significantly (p<0.05) increased | significantly reduced | significantly improved performance | significant (p<0.05) improvements | significant (p<0.05) reduction | no significant differences | not significantly different | 35.15 ± 3.25% | 37.67 ± 4.33% | 35.52 ± 0.93% | 
CC(=O)N[C@H](C(=O)O)C(C)(C)SN=O (racemic) [SNAP, S-nitroso-N-acetylpenicillamine] |  |  |  |  |  |  |  |  |  |  |  |  |  | significant improvements
